Holding throughout (assay): inhibition of tumour cell growth, NCI panel, 48 h
Experiment [1] deals with 786-0 renal.
Experiment [2] has as its system CCRF-CEM leukemia.
The test system of experiment [3] is HOP-62 NSCLC.
Experiment [4] relates to LOX IMVI melanoma.
The test system of experiment [5] is MDA-MB-435.
In experiment [6] the test system is NCI/ADR-RES ovarian.
Experiment [7] deals with OVCAR-3 ovarian.
The test system of experiment [8] is OVCAR-5 ovarian.
Experiment [9] has as its system SN12C renal.
For experiment [10], the system named is SR leukemia.
Experiment [11] concerns UACC-257 melanoma.
In experiment [12] the test system is SNB-19 CNS.

Data on 25 compounds can be found in PubChem BioAssay (NCI).

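Dose response: 5 concentrations. Exposure: 48 h. Format: 96-well plates. Endpoint: linear interpolation; highest concentration if not reached. GI50 marks 50% less growth. Definition used: TGI = concentration required for complete inhibition of growth.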 Where a SMILES comes first, the peptide text is derived from it. The star is where a group is joined. Boc = CC(C)(C)OC(=O)*

Regarding `Cc1ccc2[nH]c(=O)c(-c3cnc(=O)[nH]n3)c(O)c2c1`, the TGI in [1], in [2], in experiment [3], in [4], in experiment [5] and in experiment [6] was above 100 µM throughout. The TGI in experiment [7], in experiment [8], in experiment [9], in experiment [10] and in [11] was above 100 µM each time.

Consider `N#CC(c1ccccc1)c1cccc2ccccc12` (centres undefined), for which the TGI in experiment [1] was above 100 µM; in [3] it was above 100 µM; in [4], 50.8 µM; in experiment [5], 44.1 µM; in experiment [6] it was above 100 µM; in [7] it was 86.6 µM. Further, the TGI is above 100 µM in [8]; above 100 µM in experiment [9]; above 100 µM in [12]; 39.4 µM in experiment [10]; 67.3 µM in [11].

As for `O=C1/C(=C/c2cccs2)N=C(c2ccccc2)N1C1Nc2cc3c(cc2S1)NC(N1C(=O)/C(=C/c2cccs2)N=C1c1ccccc1)S3` (centres undefined), the TGI in [1] is 43.1 µM; in experiment [3] it was above 100 µM; in [4], 33.7 µM; in experiment [5] it was 42.6 µM; in experiment [6], 33.6 µM; in experiment [7], above 100 µM. Further, the values for the TGI in experiment [8], in experiment [10] and in experiment [11] were 75 µM, 31 µM and above 100 µM, respectively.

For `O=c1[nH]cnc2c1ncn2[C@H]1CO[C@@H](CO)[C@@H]1O`, the TGI in experiment [1], in experiment [2], in experiment [3], in experiment [4], in [5] and in experiment [6] was above 100 µM throughout. In addition, the TGI in experiment [7], in [8], in [9], in [10] and in experiment [11] was above 100 µM each time.

`CC1=C(C#N)S(=O)(=O)c2c(oc(C)c2C)N1`: the TGI in experiment [1], in experiment [3], in [4], in experiment [5], in experiment [6] and in experiment [7] was above 100 µM each time. Moreover, the TGI in experiment [8], in experiment [9], in experiment [12] and in [11] was above 100 µM each time.

Turning to `COc1cc(C(C#N)NNC(=O)c2ccccc2O)ccc1O` (centres undefined), the TGI was above 100 µM in experiment [1]; above 100 µM in experiment [2]; above 100 µM in [3]; above 100 µM in [4]; 48.5 µM in experiment [7]; above 100 µM in [8]. In addition, the TGI was above 100 µM in [9], above 100 µM in experiment [10] and 92.9 µM in experiment [11].

Take `CC[C@H]1C=CCC[C@@]2(C[C@@H]3CC[C@@H]4[C@H](C(=O)OCCCCCCCCCCCCCCCC(=O)N(CCCN)C[C@@H](O)CCN)[C@]5(CCC[C@@H](C)O5)NC(=[N+]34)N2)O1`: the TGI is 1.04 µM in [1]; 2.94 µM in experiment [3]; 0.721 µM in experiment [4]; 0.469 µM in [5]; above 10 µM in experiment [6]; above 10 µM in [7]. Also, the TGI in experiment [8] is 4.39 µM; in experiment [9] it was above 5.62 µM; in experiment [12] it was 1.27 µM; in experiment [10], 0.397 µM; in experiment [11] it was 0.573 µM.

For `CCCCNC(=S)Nc1nc(C(=O)NNS(=O)(=O)c2ccccc2)cs1`, the TGI was above 100 µM in experiment [1]; above 100 µM in [2]; above 100 µM in experiment [3]; 39.2 µM in experiment [4]; 48.4 µM in experiment [5]; above 100 µM in experiment [6]. The TGI is 54.2 µM in experiment [7]; above 100 µM in [8]; 62.5 µM in experiment [9]; above 100 µM in experiment [10]; 53.7 µM in [11].

Take `CCOC(=O)/C=C(/C(=O)OCC)n1cc(C)c(=O)n(Cc2cnnn2CCCCOC(C)=O)c1=O`: the TGI in [1] is 78.4 µM; in [2], 4.57 µM; in experiment [3] it was above 100 µM; in [4], 41 µM; in experiment [5], 87.2 µM; in experiment [6] it was 69.3 µM. Moreover, the TGI is 32.2 µM in experiment [7]; 39.8 µM in [8]; above 100 µM in [9]; above 100 µM in experiment [12]; above 100 µM in experiment [11].

Turning to `CO[P@]1(=O)O[C@@H](c2ccccc2)[C@H](O)[C@]1(O)c1ccccc1`, the TGI in experiment [1], in experiment [2], in [4], in experiment [5], in [6] and in experiment [7] was above 100 µM in each case. Further, the TGI in [8], in experiment [9], in experiment [12] and in experiment [11] was above 100 µM in each case.

Regarding `COc1ccc(CNc2nc3ccccc3nc2-c2cccs2)cc1`, the TGI in [1] was above 100 µM; in experiment [2] it was above 100 µM; in experiment [3] it was above 100 µM; in [4], 43.7 µM; in experiment [5] it was above 100 µM; in experiment [6], above 100 µM. Moreover, the TGI in experiment [7], in [8], in experiment [10] and in experiment [11] was above 100 µM throughout.

As to `COc1cccc(/C=C/C2=NN(c3cccc(S(=O)(=O)O)c3)C3(C2)SCC(=O)N3c2nc3ccccc3s2)c1` (centres undefined), the TGI in experiment [1] was 43.1 µM; in experiment [2] it was 88.3 µM; in experiment [4], 40.5 µM; in [5] it was 66.6 µM; in experiment [6] it was above 100 µM; in experiment [8] it was above 100 µM. The TGI in experiment [9] was above 100 µM; in experiment [12], above 100 µM; in experiment [10] it was 62.9 µM; in [11], above 100 µM.

Take `O=C(CSC1=NCCN1)c1ccccc1`: the TGI in experiment [1], in experiment [3], in experiment [4], in experiment [5], in experiment [6] and in experiment [7] was above 100 µM each time. Besides, the TGI in experiment [8], in experiment [9], in experiment [12], in [10] and in [11] was above 100 µM throughout.

Turning to `O=C1CSC2(CCN(CCCN3c4ccccc4Sc4ccc(Cl)cc43)CC2)N1`, the TGI in experiment [1] is 23.2 µM; in [3] it was 25.5 µM; in [4] it was 16.6 µM; in experiment [5] it was 23.5 µM; in [6], 20.2 µM; in experiment [7], 22.1 µM. The TGI was 24.3 µM in experiment [8], 22.7 µM in [9], 26 µM in [12] and 22 µM in experiment [11].

For `NNC(=O)c1ccccc1NC(=O)/C(=C/c1ccccc1)NC(=O)c1ccccc1`, the TGI in [1], in [2], in [3], in experiment [4], in experiment [5] and in experiment [6] was above 100 µM in each case. Also, the TGI in experiment [7], in experiment [8], in experiment [9], in [12] and in experiment [11] was above 100 µM throughout.

For the compound `O=C(c1cccs1)N(C(=O)N1CCC(c2ccccc2)CC1)c1ccccc1`, the TGI is above 100 µM in experiment [1]; above 100 µM in experiment [2]; 98.3 µM in [3]; above 100 µM in [4]; above 100 µM in experiment [5]; above 100 µM in [6]. The TGI in experiment [7], in experiment [8], in experiment [9], in experiment [12] and in [11] was above 100 µM in each case.

As for `CCCCCCCCCC[C@@H](O)[C@@H]1CC[C@@H]([C@@H]2CC[C@@H]([C@@H](O)CCCCCCCCCCC(O)CC3=CC(C)OC3=O)O2)O1` (some centres undefined), the TGI in [2], in [3], in experiment [4], in experiment [6], in experiment [8] and in experiment [9] was above 10 µM throughout. Moreover, the values for the TGI in experiment [10] and in experiment [11] were 6.45 µM and above 10 µM, respectively.

With `CC(Nc1cc(Cl)cc(Cl)c1)c1ccncc1` (centres undefined), the TGI in [1] is 51.3 µM; in experiment [2], 58 µM; in experiment [3], 33.5 µM; in experiment [4], 24.8 µM; in [5] it was 47.5 µM; in [6] it was 63.7 µM. For the same compound, the TGI in experiment [7] is 35.7 µM; in [8], 32.4 µM; in experiment [12], above 100 µM; in experiment [11], 58.6 µM.

Regarding `Clc1ccc(OCc2nnc(CCCCCCCCc3nnc(COc4ccc(Cl)cc4Cl)o3)o2)c(Cl)c1`, the TGI in experiment [1], in experiment [5], in [6], in [8], in experiment [9] and in experiment [12] was above 100 µM throughout. Besides, the TGI in experiment [11] is above 100 µM.

Turning to `CC(NC(=O)C(NC(=O)OC(C)(C)C)C(C)C)C(=O)NCC(=O)O` (stereo not drawn) (Boc-Val-Ala-Gly-OH; configuration not given here), the TGI in [1], in [3], in [5], in experiment [6], in experiment [7] and in experiment [8] was above 100 µM each time. Further, the TGI in experiment [9], in [12], in [10] and in [11] was above 100 µM in each case.

As for `CCCCCC(C)C[C@H]1CO[C@H](c2ccc[nH]2)N[C@H]1C(=O)OC` (some centres undefined), the TGI in experiment [1], in [2], in [3], in experiment [4], in experiment [5] and in experiment [6] was above 100 µM each time. For the same compound, the TGI in [7], in [8], in experiment [9], in [12] and in experiment [11] was above 100 µM each time.

Regarding `O=C(c1ccco1)N(C(=S)N1CCN(c2ccccc2)CC1)c1ccccc1`, the TGI in experiment [1], in experiment [2], in experiment [3], in [4], in [7] and in experiment [8] was above 100 µM each time. Moreover, the TGI in [9], in experiment [12], in [10] and in experiment [11] was above 100 µM in each case.

Take `COc1ccc(-c2cn3ccnc3c(-c3ccc4ncn(C5CCCCC5)c4c3)n2)cc1`: the GI50 in experiment [2] is 1.64 µM; in experiment [4], 0.74 µM; in experiment [5], 0.312 µM; in experiment [7], 0.411 µM; in experiment [9] it was 2.11 µM; in experiment [12], 0.836 µM. Moreover, the GI50 in [10] was 0.89 µM; in experiment [11] it was above 100 µM. Further, the TGI in experiment [2], in experiment [4], in experiment [5], in experiment [7], in [9] and in experiment [12] was above 100 µM throughout. Moreover, the TGI in [10] and in experiment [11] was above 100 µM throughout.

For the compound `CC(NCCS(=O)(=O)O)C(=O)O` (centres undefined), the TGI is above 100 µM in [2]; above 100 µM in experiment [3]; above 100 µM in experiment [4]; above 100 µM in experiment [6]; above 69.4 µM in [7]; above 100 µM in experiment [8]. Further, the TGI in [9], in [12] and in [11] was above 100 µM in each case.

Consider `CCN(CC)CCNc1ccc(N=Nc2ccc(S(N)(=O)=O)cc2)c2ccccc12`, for which the TGI was above 100 µM in experiment [1]; 38.3 µM in experiment [2]; above 100 µM in experiment [3]; 23.6 µM in [5]; above 100 µM in experiment [6]; 5.55 µM in experiment [7]. Moreover, the TGI came out at 88.1 µM in experiment [8]; 81 µM in experiment [9]; 27.7 µM in experiment [12]; 4.94 µM in [10]; 31.4 µM in experiment [11].
